Measured values published in patent US5068183A, “Method for measurement of α-amylase activity” (Kurita Water Industries, Ltd., priority 1986, dated 1991).

What was measured:
α-amylase [1] = assay: Measurement of α-amylase activity with Reagent II (substrate, α-glucosidase, inositol dehydrogenase, NAD); type: biochemical; settings: substrate 1 mmol/l; sample serum containing 55 mU/ml and 220 mU/ml; 37° C., 10 minutes; linear after 4 minutes
Protocol: On the other hand, in the case of using the malto-oligo saccharide represented by general formula (V), when the substrate and glucosidase as a coupled enzyme are added to a sample such as a body fluid or the like, the reaction proceeds as shown below (hereinafter G5 I represented by general formula (VI) is used as a specific example of general formula (V)). [drawing 8]
The thus liberated inositol or derivatives thereof are reacted with inositol dehydrogenase (IDH) in the presence of NAD thereby to produce NADH; by the change in absorbancy, the amount of inositol can be determined. [drawing 9]
Reagent II was prepared by the following formulation.
(§1) 1 mmol/l (final concentration)
(§2) 25 U/ml (final concentration)
40 U/ml (final concentration
NAD 40 mmol/l (final concentration)
(§3) 100 mmol/l (final concentration)
To 800 μl of Reagent II described above was added 100 μl of a sample serum containing 55 mU/ml and 220 mU/ml, respectively. While incubating at 37° C. for 10 minutes, change in absorbancy was measured at 340 nm.
Measurement was performed in a similar manner as in Example 5 except that 100 mg/ml of glucose was further added to each sample serum.

α-amylase [2] = assay: Measurement of α-amylase activity with Reagent I (substrate, α-glucosidase, mannitol dehydrogenase, NADH); type: biochemical; settings: substrate 1 mmol/l; sample serum containing 90 mU/ml and 270 mU/ml; 37° C., 10 minutes; linear after 6 minutes
Protocol: When the substrate and glucosidase as a coupled enzyme are added to a sample such as a body fluid or the like, the reaction proceeds as shown below in the case of the malto-oligo saccharide represented by general formula (I) (hereinafter MeG5 F represented by general formula (IV) is used as a specific example of general formula (I)). [drawing 6]
The thus liberated monosaccharides such as fructose or the like and derivatives thereof are reacted with, for example, mannitol dehydrogenase (MDH) or sorbitol dehydrogenase (SDH) in the presence of NADH thereby to produce […]; by the change in absorbancy, the amount of fructose can be determined. [drawing 7]
Reagent I was prepared by the following formulation.
as §1, §2
40 U/ml (final concentration)
NADH 0.16 mmol/l (final concentration)
as §3
100 mmol/1 (final concentration) To 800 μl of Reagent I described above was added 100 μl of a sample serum containing 90 mU/ml and 270 mU/ml, respectively. While incubating at 37° C. for 10 minutes, change in absorbancy was measured at 340 nm.
Measurement was performed in a similar manner except that 100 mg/ml of glucose was further added to each sample serum.

## OC[C@H]1O[C@H](O[C@H]2[C@H](O)[C@@H](O)[C@@H](O[C@H]3[C@H](O)[C@@H](O)[C@@H](O[C@H]4[C@H](O)[C@@H](O)[C@@H](O[C@H]5[C@H](O)[C@@H](O)[C@@H](OC6C(O)C(O)C(O)C(O)C6O)O[C@@H]5CO)O[C@@H]4CO)O[C@@H]3CO)O[C@@H]2CO)[C@H](O)[C@@H](O)[C@@H]1O (some centres unmarked) [G5 I]
α-amylase [1]
  change in absorbancy at 340 nm (FIG. 2): good linear relationship was obtained in any concentration after 4 minutes

## COC[C@H]1O[C@H](O[C@H]2[C@H](O)[C@@H](O)[C@@H](O[C@H]3[C@H](O)[C@@H](O)[C@@H](O[C@H]4[C@H](O)[C@@H](O)[C@@H](O[C@H]5[C@H](O)[C@@H](O)[C@@H](O[C@]6(CO)O[C@H](CO)[C@@H](O)[C@@H]6O)O[C@@H]5CO)O[C@@H]4CO)O[C@@H]3CO)O[C@@H]2CO)[C@H](O)[C@@H](O)[C@@H]1OC [MeG5 F]
α-amylase [2]
  change in absorbancy at 340 nm (FIG. 1): good linear relationship was obtained in any concentration after 6 minutes
